Measurements as given in ChEMBL document CHEMBL1155697, “Chapecoderins A-C, new labdane-derived diterpenoids from Echinodorus macrophyllus” (J Nat Prod, 2000).
≈ marks a conversion by molar mass, not a printed value.

System: L1210
Assay: Cytotoxicity against mouse L1210 cells
Type: functional, cell-based

SMILES	IC50
CC(=O)CC[C@H]1C(C)(C)CCC[C@]1(C)C(=O)CCC1=CCOC1=O [CHAPECODERIN A]	> 10 µg/mL
CC(=O)[C@@H]1C[C@H]2C(C)(C)CCC[C@]2(C)[C@@]1(O)CCC1=CCOC1=O [CHAPECODERIN B]	7.2 µg/mL (≈ 21.5 µM)
CC(=O)C1=C(CCC2=CCOC2=O)[C@@]2(C)CCCC(C)(C)[C@@H]2C1 [CHAPECODERIN C]	6 µg/mL (≈ 19 µM)
